{"source": "patent US8840927B2", "about": "“Method of making anti-microbial polymeric surfaces” (Covalon Technologies Inc., priority 2001, dated 2014)", "test": "Aqueous solubility of photo-initiator", "type": "physicochemical", "description": "Pre-weighed silicone disks (approximately 0.7 cm in diameter, 0.2 cm in thickness) or cylindrical sections (approximately 0.5 cm in diameter, 1 cm in length) were incubated in a methanol solution of photo-initiator (BPB; or p-benzoyl benzoic acid, BBA) for 1 hour followed by air drying at about 40° C. for 2 hours. Samples were then suspended in vials containing 3 mL of aqueous monomer solution. When required, monomer solutions were saturated with BPB. The aqueous solubility of BPB was 4 μg/mL. All solutions were filtered through 0.22 μm pore filters prior to being flushed with nitrogen for 15 min. Vials were sealed with rubber septa and placed 2.5 cm beneath a pair of UVA bulbs (15 W ea.). Radiation intensity at the sample site was 3.8 mW/cm2 as determined by UV actinometry (16). After completion of the graft polymerization reaction, samples were briefly washed under running water with occasional scrubbing to remove any signs of adsorbed homopolymer. The remaining non-grafted material was removed by overnight incubation in 50% ethanol followed by a 4 hour incubation in water. Samples were dried in a 60° C. oven for 16 hours before their weights were determined using a microbalance. Quadruplicate samples of each treatment were analysed in all experiments.", "data": [{"smiles": "CC(C)(C)OOC(=O)c1ccc(C(=O)c2ccccc2)cc1", "note": "[BPB, p-benzoyl tert-butylperbenzoate]", "values": [{"measurement": "aqueous solubility", "result": 4, "unit": "µg/mL"}]}]}
